According to patent US9128100B2, “Non-invasive diagnostic method for the evaluation of intestinal lactase deficiency (hypolactasia)” (Venter Pharma, S.L., priority 2012, dated 2015):
Where “and” joins values, the source holds several entries; their conditions need not be identical. Identical values can stand only once.

Tests used:
intestinal lactase [1] = target: T1, intestinal lactase (Homo sapiens, UniProt P09848); assay: Lower limits of normal (cut-off points) of xylose in urine and blood of healthy controls after 4-GX; assay type: in vivo; settings: mean minus 1.96 SD of healthy controls
T1 construct: after its oral administration it is hydrolysed by the intestinal mucosa enzyme; from tissue; host or cells: small-intestinal mucosa (enterocyte brush border) of living human volunteers and patients, in vivo
Source text: The indicator of the lower limit of normal was taken to be the difference between the average xylose concentrations in blood and/or the difference between the average total amounts of xylose excreted in the urine, and 1.96 times the standard deviation.
The data obtained with the 4-GX administration test in the healthy control group was used to determine the lower limits of normal of xylose in urine and blood (cut-off points). The cut-off points for the 4-GX test in urine were obtained for times of 4 hours and 5 hours because, as already seen in example 2, these times are the best for determining the amount of xylose excreted in urine following 4-GX administration and performing a reliable diagnosis of lactase deficiency. Similarly, the cut-off points for the determination of the blood xylose concentration following 4-GX administration were obtained for the time of 90 minutes following ingestion of the disaccharide. The difference between the average xylose concentration (in blood and the total quantity of xylose excreted in the urine) and 1.96 times the standard deviation was used for the lower limit of normal indicator. The lower limit of xylose accumulated in 4-hour urine was 27.58 mg; xylose accumulated in 5-hour urine was 37.87 mg and the increase in the concentration of plasma xylose after 90 minutes following ingestion of the product, compared to basal blood, was 0.97 mg/dL.

intestinal lactase [2] = target: T1, intestinal lactase; settings: ES 2208099, cited from earlier work
intestinal lactase [3] = target: T1, intestinal lactase; assay: 4-GX test in 5-hour urine, patients with symptoms suggestive of lactose intolerance; assay type: in vivo
Description: (§1) The diagnostic tests to which these patients were subjected were: • Intestinal biopsy: determining intestinal lactase activity therein. • Hydrogen breath test after the oral administration to patients of 50 g of lactose. While this test was being carried out, several capillary-blood glucose test (Glycemia tests) were carried out, calculating the highest increase observed in the blood glucose concentration compared to basal glucose level before starting the test. • 4-GX test in total urine at 0-4 and 0-5 hours, which was orally administered to patients 0.5 g of this product (or 0.45 g in a 4-GX sample including 10 wt % water), collecting the total urine accumulated over 0-4 h and 0-5 h following the administration of 4-GX and determining the amount of excreted xylose in both volumes of urine. • 4-GX test in blood which was orally administered to patients 3 g of this product (or 2.7 g in a 4-GX sample including 10 wt % water) to determine the concentration of plasma xylose in a blood sample 90 minutes after ingestion of the product. The concentration obtained was compared to a basal blood sample extracted before ingestion of 4-GX.
The 4-GX was orally administered in a single dose dissolved in 100 ml of water.
From here on, the optimum dose of 0.5 g of 4-GX (or 0.45 g in a 4-GX sample including 10 wt % water) was used in the 4-GX urine test for the diagnosis of intestinal lactase deficiency by the non-invasive method described in the present invention. This dose was dissolved in 100 ml water, and following the test protocol, 2 samples of urine excreted during the 5 hours following the administration of the drug were taken, in two interval groups: at 4 hours following administration of 4-GX and at 5 hours following administration of 4-GX.
From the data obtained from the various urine tests for intestinal lactase deficiency following oral ingestion of 4-GX described in the present invention, a descriptive statistical analysis was performed of the amount of xylose excreted in the urine up to 4 hours and up to 5 hours following said administration. The same was done with the blodd test for intestinal lactase activity following oral ingestion of 4-GX, where descriptive statistical analysis was performed on the amount of xylose present in the plasma of subjects at 90 minutes following administration of 4-GX. The net increase in the plasma xylose concentration compared to basal values was also calculated.
To obtain the statistical parameters of lactase determination using the various 4-GX tests described in the present invention and later to compare them with the results obtained from the intestinal biopsy test, hydrogen in exhaled air test and capillary-blood glucose test, the normal limits of the measurement of the total amount of xylose excreted in 4-hour and 5-hour urine and the concentration of blood xylose after 90 minutes following ingestion of 4-GX described in Table 5 were used. The normal limits for the other tests were those used in common clinical practice for the diagnosis of lactose intolerance (Arola, H. (1994) Diagnosis of hypolactasia and lactose malabsorption. Scand. J. Gastroenterol. […] (Suppl), 26-35), which are:
For the measurement of lactase by intestinal biopsy, the lower normal limit is established at 10 units/g protein, with values less than this being considered positive.

intestinal lactase [4] = target: T1, intestinal lactase; assay: The three 4-GX tests (4-hour urine, 5-hour urine, blood) taken together; assay type: in vivo; settings: all 4-GX tests; after correcting biopsy diagnosis
Description: as §1
The 4-GX was orally administered in a single dose dissolved in 100 ml of water. […]

[5] = 0.5 g 4-GX, 0-5 h urine, cut-off 37.87 mg, 205 patients
[6] = 0.5 g 4-GX, 5-hour urine, lactase in intestinal biopsy as gold standard
[7] = 5-hour urine, after correcting biopsy diagnosis
[8] = 5-hour urine, after correction of the biopsy diagnostic result (five discrepancies)
[9] = 5-hour urine, after correction of the biopsy diagnostic result (four discrepancies)
[10] = 5-hour urine, biopsy as gold standard
[11] = 5-hour urine, final criteria of Table 9

T1 sequence (P09848 869-1927): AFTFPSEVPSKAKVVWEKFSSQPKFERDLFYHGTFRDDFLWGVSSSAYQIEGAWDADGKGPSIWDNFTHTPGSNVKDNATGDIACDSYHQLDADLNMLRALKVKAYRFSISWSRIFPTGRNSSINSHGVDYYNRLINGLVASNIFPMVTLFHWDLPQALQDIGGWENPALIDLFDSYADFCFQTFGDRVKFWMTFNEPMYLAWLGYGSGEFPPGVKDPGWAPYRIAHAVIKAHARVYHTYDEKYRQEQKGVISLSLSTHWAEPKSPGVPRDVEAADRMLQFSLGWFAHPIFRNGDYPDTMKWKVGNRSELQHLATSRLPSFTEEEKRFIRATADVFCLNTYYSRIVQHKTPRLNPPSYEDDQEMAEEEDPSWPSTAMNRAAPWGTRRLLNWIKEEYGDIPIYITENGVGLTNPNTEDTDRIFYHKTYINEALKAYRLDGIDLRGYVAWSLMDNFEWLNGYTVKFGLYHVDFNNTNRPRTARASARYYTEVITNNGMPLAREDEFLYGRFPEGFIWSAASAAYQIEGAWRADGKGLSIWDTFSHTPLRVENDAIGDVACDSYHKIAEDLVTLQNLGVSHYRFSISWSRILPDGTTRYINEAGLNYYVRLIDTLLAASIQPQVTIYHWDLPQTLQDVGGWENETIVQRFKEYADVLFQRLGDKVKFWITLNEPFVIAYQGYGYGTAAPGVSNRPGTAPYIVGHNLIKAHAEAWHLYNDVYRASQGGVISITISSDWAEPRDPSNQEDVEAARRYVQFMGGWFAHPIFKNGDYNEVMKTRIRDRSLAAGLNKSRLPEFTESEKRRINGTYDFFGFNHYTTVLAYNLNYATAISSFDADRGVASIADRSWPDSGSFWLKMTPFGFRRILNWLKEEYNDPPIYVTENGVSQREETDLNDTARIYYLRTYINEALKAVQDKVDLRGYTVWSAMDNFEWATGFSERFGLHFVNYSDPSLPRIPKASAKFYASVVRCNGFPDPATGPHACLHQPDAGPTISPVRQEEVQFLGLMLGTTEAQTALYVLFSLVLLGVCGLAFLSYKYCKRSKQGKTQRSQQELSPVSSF

- Cut-off point, total xylose in 4-hour urine (intestinal lactase [1]; 4-GX 0.125 g): 11.88 mg
- Cut-off point, total xylose in 5-hour urine (intestinal lactase [1]; 4-GX 0.125 g): 16.72 mg
- Cut-off point, total xylose in 4-hour urine (intestinal lactase [1]; 4-GX 0.250 g): 20.62 mg
- Cut-off point, total xylose in 5-hour urine (intestinal lactase [1]; 4-GX 0.250 g): 28.08 mg
- Cut-off point, total xylose in 4-hour urine (intestinal lactase [1]; 4-GX 0.5 g): 27.58 mg
- Cut-off point, total xylose in 5-hour urine (intestinal lactase [1]; 4-GX 0.5 g): 37.87 mg
- Cut-off point, xylose concentration in 90-min blood (increase over basal) (intestinal lactase [1]; 4-GX 0.5 g): 0.41 mg/dL
- Cut-off point, total xylose in 4-hour urine (intestinal lactase [1]; 4-GX 1 g): 33.04 mg
- Cut-off point, total xylose in 5-hour urine (intestinal lactase [1]; 4-GX 1 g): 41.35 mg
- Cut-off point, xylose concentration in 90-min blood (increase over basal) (intestinal lactase [1]; 4-GX 1 g): 0.53 mg/dL
- Cut-off point, total xylose in 4-hour urine (intestinal lactase [1]; 4-GX 3 g): 45.58 mg
- Cut-off point, total xylose in 5-hour urine (intestinal lactase [1]; 4-GX 3 g): 69.57 mg and 69.75 mg
- Cut-off point, xylose concentration in 90-min blood (increase over basal) (intestinal lactase [1]; 4-GX 3 g): 0.97 mg/dL
- Cut-off point, total xylose in 4-hour urine (intestinal lactase [1]; 4-GX 6 g): 87.96 mg
- Cut-off point, total xylose in 5-hour urine (intestinal lactase [1]; 4-GX 6 g): 110.12 mg
- Cut-off point, xylose concentration in 90-min blood (increase over basal) (intestinal lactase [1]; 4-GX 6 g): 1.44 mg/dL
- recalculated values for sensitivity, specificity, positive and negative predictive values (intestinal lactase [4]): above 95%
Compound: O=C[C@H](O)[C@@H](O)[C@@H](CO)O[C@@H]1O[C@H](CO)[C@H](O)[C@H](O)[C@H]1O [4-GX, 4-O-β-galactopyranosyl-D-xylose]
- time of maximum xylose in plasma after ingestion (intestinal lactase [2]; 3 g 4-GX oral, lactose-tolerant adult volunteers): around 2 hours
- dose of 4-GX sufficient for reliable detection of xylose in urine (intestinal lactase [2]; healthy lactose-tolerant adult volunteers): 0.25 g
- No. Negative (intestinal lactase [3]; [5]): 96
- No. Positive (patients presenting intestinal lactase deficiency) (intestinal lactase [3]; [5]): 109
- Percentage of patients negative (intestinal lactase [3]; [5]): 47%
- Percentage of patients positive (intestinal lactase [3]; [5]): 53.2% and 53%
- Negative predictive value (intestinal lactase [3]; [6]): 92.7% and 92.71%
- Positive predictive value (intestinal lactase [3]; [6]): 92.7% and 92.66%
- Sensitivity (intestinal lactase [3]; [6]): 93.5% and 93.52%
- Specificity (intestinal lactase [3]; [6]): 91.8% and 91.75%
- sensitivity calculated using the ROC curves (intestinal lactase [3]; 5-hour urine samples): 93.5%
- specificity calculated using the ROC curves (intestinal lactase [3]; 5-hour urine samples): 91.8%
- range of recalculated sensitivity, specificity, positive and negative predictive values (intestinal lactase [3]; 5-hour urine test, after correcting biopsy diagnosis): 96.94-99.07
- false negatives (intestinal lactase [3]; [7]): 0.93%
- negative likelihood ratio (intestinal lactase [3]; [7]): 0.010
- positive likelihood ratio (intestinal lactase [3]; [7]): 32.361
- Negative predictive value (intestinal lactase [3]; [8]): 98.96%
- Positive predictive value (intestinal lactase [3]; [8]): 97.25%
- Sensitivity (intestinal lactase [3]; [8]): 99.07%
- Specificity (intestinal lactase [3]; [8]): 96.94%
- Negative predictive value (intestinal lactase [3]; [9]): 100.00%
- Positive predictive value (intestinal lactase [3]; [9]): 98.17%
- Sensitivity (intestinal lactase [3]; [9]): 100.00%
- Specificity (intestinal lactase [3]; [9]): 97.96%
- area under the ROC curve (intestinal lactase [3]; [10]): 0.9315
- false negatives (intestinal lactase [3]; [10]): 6.5%
- false positives (intestinal lactase [3]; [10]): 8.2%
- concordant positive results, percentage (intestinal lactase [3]; [11]): 99.1%
- final number of concordant positive results (intestinal lactase [3]; [11]): 106
- negative results (concordant), percentage (intestinal lactase [3]; [11]): 96.9%
- number of negative results (concordant) (intestinal lactase [3]; [11]): 95
